As a reminder, the IC50 is the concentration needed to halve the response being measured. High values mean a need for much substance, low ones inhibition by little substance. The term inhibition denotes the relative decrease from the control value, in per cent. A higher inhibition goes with a response far below the control.

In one experiment the target is T1, human CB1 receptor (Homo sapiens, UniProt P21554).
T1 construct: expressed in transfected cells; membrane-enriched fractions
The experiment can be described thus: competitive radioligand binding assay, displacement of [3H]CP55,940, CB1. The note with it: for IC50: displacement of specific [3H]-CP55940 binding in HEK 293 cells stably transfected with human CB1 receptor. The gist of the method: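 Membranes from cell lines stably expressing human CB1 or CB2 (0.2˜8 μg) incubated with 0.75 nM [3H]CP55,940 plus test compound in Tris-HCl/MgCl2/EDTA/0.3% BSA, pH 7.4, 1.5 hours at 30° C. Non-specific binding with 1 μM CP55,940; filter-bound radioactivity counted after filtration and washing.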
(Displacement assays read how much labelled ligand stays bound in the presence of the test substance.)

The next experiment deals with T2, human CB2 receptor (Homo sapiens, UniProt P34972).
T2 construct: expressed in transfected cells; membrane-enriched fractions
T2 sequence (P34972 whole entry): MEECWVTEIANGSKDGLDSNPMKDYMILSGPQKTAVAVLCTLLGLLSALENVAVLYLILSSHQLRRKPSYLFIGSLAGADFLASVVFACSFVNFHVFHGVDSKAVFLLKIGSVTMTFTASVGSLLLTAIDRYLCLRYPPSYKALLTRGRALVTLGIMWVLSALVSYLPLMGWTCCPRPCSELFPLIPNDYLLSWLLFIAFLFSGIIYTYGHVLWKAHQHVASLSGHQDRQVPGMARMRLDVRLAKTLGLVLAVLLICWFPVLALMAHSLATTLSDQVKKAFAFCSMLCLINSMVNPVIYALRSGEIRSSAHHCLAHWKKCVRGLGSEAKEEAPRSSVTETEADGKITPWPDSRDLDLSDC
Nature of the experiment: competitive radioligand binding assay, displacement of [3H]CP55,940, CB2. As to the method:
In addition, the affinity of test compounds of this invention toward CB1 and CB2 receptors was determined by competitive radioligand binding assays in vitro. This method differentiates the binding strength between compounds by their abilities in displacing a receptor-specific radioactive ligand. […] The readings of the radioactivity retained allow further analysis of receptor binding, and assist in predictions of the pharmacological activities of the test compounds.
In the assays, CB1 receptors are from human CB1 stably expressed cell lines, and CB2 receptors are from human CB2 stably expressed cell lines. For purification of membrane-enriched fractions, cells were scraped off from the culture dishes in ice-cold buffer A (50 mM Tris, 5 mM MgCl2, 2.5 mM EDTA, pH 7.4, 10% sucrose) with 1 mM PMSF. After sonication, the membrane-enriched fractions were centrifuged for 15 minutes at 2,000×g at 4° C. The supernatant was centrifuged again for 30 minutes at 43,000×g at 4° C. The final pellet was re-suspended in buffer A and stored at −80° C. The protein concentration of the purified membrane was determined by the Bradford method as described by the manual provided by Bio-Rad Laboratories, Inc., Hercules, Calif.
During the receptor binding experiments, 0.2˜8 μg of membrane fractions were incubated with 0.75 nM [^3H]CP55,940 and a test compound in the incubation buffer of 50 mM Tris-HCl, 5 mM MgCl2, 1 mM EDTA, 0.3% BSA, pH 7.4. The non-specific binding was determined by using 1 μM of CP55,940. The mixture was incubated for 1.5 hours at 30° C. in Multiscreen microplates (Millipore, Billerica, Mass.). At the completion of the incubation, the reaction was terminated by Manifold filtration and washed with ice-cold wash buffer (50 mM Tris, pH 7.4, 0.25% BSA) four times. The radioactivity bound to the filters was measured by Topcount (Perkin Elmer Inc.).

[1] abbreviates: Table 2, percent inhibition at 10 μM.
Setting [2] is: Table 1, percent inhibition at 10 μM.

Structures are written as SMILES. Where only a bound is given, the exact number is not on record here.

T1 sequence (P21554 whole entry): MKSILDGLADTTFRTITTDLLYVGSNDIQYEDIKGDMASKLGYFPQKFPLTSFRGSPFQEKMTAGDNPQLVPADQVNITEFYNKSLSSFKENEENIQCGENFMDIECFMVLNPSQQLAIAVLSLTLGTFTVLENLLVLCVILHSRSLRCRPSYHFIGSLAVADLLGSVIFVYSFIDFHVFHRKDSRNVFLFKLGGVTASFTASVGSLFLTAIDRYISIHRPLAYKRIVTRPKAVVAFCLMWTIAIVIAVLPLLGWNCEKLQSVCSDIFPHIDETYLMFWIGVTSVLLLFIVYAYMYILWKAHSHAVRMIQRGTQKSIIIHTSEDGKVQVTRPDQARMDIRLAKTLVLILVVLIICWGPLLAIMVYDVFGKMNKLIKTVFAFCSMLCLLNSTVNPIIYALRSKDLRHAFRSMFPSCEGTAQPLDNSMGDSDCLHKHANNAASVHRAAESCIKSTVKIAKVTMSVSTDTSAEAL

As to `O=C(Cn1nc(-c2ccc(Cl)cc2Cl)c(-c2ccc(Cl)cc2Cl)n1)NC1CCCCC1` [Compound 125], the “CB1 Inhibition (%) (10 μM)” value on human CB1 receptor (Table 2, percent inhibition at 10 μM, 10 µM) is reported as 91.40%. Further, the IC50 at human CB1 receptor is 0.144 ± 0.11 µM; on human CB2 receptor (cells printed in μM), > 10 µM.

With `O=C(Cn1nc(-c2ccc(Cl)cc2Cl)c(-c2ccc(Cl)cc2Cl)n1)Nc1ccccc1` [Compound 147], at 10 µM the inhibition on human CB1 receptor (setting [1]) was 99.5%. In addition, the IC50 on human CB1 receptor is 0.251 ± 0.0881 µM; on human CB2 receptor (cells printed in μM), > 10 µM.

With `O=C(Cn1nc(-c2ccc(Cl)cc2Cl)c(-c2ccc(Cl)cc2Cl)n1)NCc1cc(F)ccc1F` [Compound 184], the 50% inhibitory concentration (IC50) on human CB1 receptor is 0.022 ± 0.0061 µM; on human CB2 receptor (cells printed in μM), > 10 µM.

On human CB1 receptor (setting [1]), `O=C(Cn1nc(-c2ccc(Cl)cc2Cl)c(-c2ccc(Cl)cc2Cl)n1)NCc1ccccc1` [Compound 122] yielded an inhibition at 10 µM of 99.3%. In addition, the IC50 on human CB1 receptor is 0.0669 ± 0.0089 µM; on human CB2 receptor (cells printed in μM) it was > 10 µM.

As to `O=C(Cn1nc(-c2ccc(Cl)cc2Cl)c(-c2ccc(Cl)cc2Cl)n1)N1CCCCC1` [Compound 120], the inhibition at 10 µM on human CB1 receptor (setting [1]) is 93.7%. At human CB2 receptor (human CB2 stably expressed cell line membranes), this molecule registered an IC50 of 5.9 ± 0.764 µM.

For the molecule `O=C(Cn1nc(-c2ccc(Cl)cc2Cl)c(-c2ccc(Cl)cc2Cl)n1)NCc1ccc(F)c(F)c1` [Compound 198], the IC50 is 0.0829 ± 0.007 µM at human CB1 receptor and > 10 µM on human CB2 receptor (cells printed in μM).

As to `CC(NC(=O)Cn1nc(-c2ccc(Cl)cc2Cl)c(-c2ccc(Cl)cc2Cl)n1)c1ccccc1` (centres unmarked) [Compound 202], the IC50 at human CB1 receptor was 0.048 ± 0.0111 µM; on human CB2 receptor (cells printed in μM) it was > 10 µM.

As for `O=C(Cn1nc(-c2ccc(Cl)cc2Cl)c(-c2ccc(Cl)cc2Cl)n1)NCc1ccc(Cl)cc1` [Compound 192], the IC50 at human CB1 receptor is 0.0648 ± 0.0105 µM; on human CB2 receptor (cells printed in μM), > 10 µM.

In the case of `O=C(Cn1nc(-c2ccc(Cl)cc2Cl)c(-c2ccc(Cl)cc2Cl)n1)NCc1ccc(F)cc1` [Compound 171], the IC50 is 0.0116 ± 0.0034 µM on human CB1 receptor and > 10 µM at human CB2 receptor (cells printed in μM).

In the case of `O=C(Cn1nc(-c2ccc(Cl)cc2)c(-c2ccc(Cl)cc2Cl)n1)NCc1ccccc1` [Compound 168], at human CB1 receptor (setting [1]), 10 µM produced 93.9% inhibition. The IC50 was 0.204 ± 0.0781 µM at human CB1 receptor and > 10 µM at human CB2 receptor (cells printed in μM).

Consider `O=C(Cn1nc(-c2ccc(Cl)cc2)c(-c2ccc(Cl)cc2Cl)n1)NCc1ccc(F)cc1` [Compound 162], for which testing at 10 µM on human CB1 receptor (setting [1]) gave an inhibition of 90.5%. Further, the IC50 on human CB1 receptor is 0.449 ± 0.0679 µM; on human CB2 receptor (cells printed in μM), > 10 µM.

For the molecule `O=C(Cn1nc(-c2ccc(Cl)cc2Cl)c(-c2ccc(Cl)cc2Cl)n1)NCc1cccc(F)c1` [Compound 170], the IC50 on human CB1 receptor was 0.0257 ± 0.0029 µM; at human CB2 receptor (cells printed in μM) it was > 10 µM.

`O=C(Cn1nc(-c2ccc(Cl)cc2)c(-c2ccc(Cl)cc2Cl)n1)NCc1cc(F)ccc1F` [Compound 165] registered an inhibition at 10 µM at human CB1 receptor (setting [1]) of 89.8%. For the same molecule, the IC50 on human CB1 receptor is 0.152 ± 0.071 µM; on human CB2 receptor (cells printed in μM) it was > 10 µM.

As to `COc1ccc(CNC(=O)Cn2nc(-c3ccc(Cl)cc3Cl)c(-c3ccc(Cl)cc3Cl)n2)cc1` [Compound 146], the inhibition at 10 µM at human CB1 receptor (setting [1]) was determined as 94.8%. Also, the half-inhibitory concentration (IC50) at human CB1 receptor was 0.0819 ± 0.0442 µM; at human CB2 receptor (cells printed in μM), > 10 µM.

In the case of `COc1ccccc1CNC(=O)Cn1nc(-c2ccc(Cl)cc2Cl)c(-c2ccc(Cl)cc2Cl)n1` [Compound 196], the IC50 on human CB1 receptor is 0.125 ± 0.0231 µM; at human CB2 receptor (cells printed in μM), > 10 µM.

On to `O=C(Cn1nc(-c2ccc(Cl)cc2)c(-c2ccc(Cl)cc2Cl)n1)NCc1ccccc1F` [Compound 160], for which, at human CB1 receptor (setting [1]), at 10 µM the inhibition was 88.2%. Also, the IC50 at human CB1 receptor was 0.262 ± 0.184 µM; on human CB2 receptor (cells printed in μM), > 10 µM.

On to `CCCCOC(=O)Cn1nc(-c2ccc(Cl)cc2Cl)c(-c2ccc(Cl)cc2Cl)n1` [Compound 111], for which the inhibition at 10 µM at human CB1 receptor (setting [1]) was determined as 90.3%. Further, the IC50 was 1.17 ± 0.263 µM at human CB1 receptor and > 10 µM at human CB2 receptor (cells printed in μM).

With `Cc1cccc(CNC(=O)Cn2nc(-c3ccc(Cl)cc3Cl)c(-c3ccc(Cl)cc3Cl)n2)c1` [Compound 188], the IC50 at human CB1 receptor was 0.0517 ± 0.0155 µM; at human CB2 receptor (cells printed in μM), > 10 µM.

Turning to `CCCCOC(=O)Cn1nncc1-c1ccccc1` [Compound 13], at 10 µM the inhibition on human CB1 receptor (setting [2]) was 22%.

In turn, `COC[C@H](NC(=O)Cn1nc(-c2ccc(Cl)cc2)c(-c2ccc(Cl)cc2Cl)n1)[C@@H](O)c1ccccc1` [Compound 140] registered an IC50 at human CB1 receptor of 1.05 ± 0.256 µM.

As for `O=C(Cn1nc(-c2ccc(Cl)cc2Cl)c(-c2ccc(Cl)cc2Cl)n1)NCc1ccccc1Cl` [Compound 191], the IC50 was 0.0489 ± 0.012 µM at human CB1 receptor and > 10 µM on human CB2 receptor (cells printed in μM).

`CCCCOC(=O)Cn1nnc(-c2cccc(Br)c2)c1-c1cccc(Br)c1` [Compound 62] showed an inhibition at 10 µM on human CB1 receptor (setting [2]) of 18.3%.

`CCCCCCCCC(=O)n1nc(-c2ccc(Cl)cc2)c(-c2ccc(Cl)cc2)n1` [Compound 85] yielded an inhibition at 10 µM on human CB1 receptor (setting [1]) of 18.3%.

`O=C(Cn1nc(-c2ccc(Cl)cc2Cl)c(-c2ccc(Cl)cc2Cl)n1)N[C@H]1c2ccccc2C[C@H]1O` [Compound 127] came in with an inhibition at 10 µM at human CB1 receptor (setting [1]) of 89.4%. Further, the IC50 at human CB1 receptor was 1.24 ± 0.697 µM.

In turn, `CCCCOC(=O)Cn1nc(-c2ccc(Cl)cc2)c(-c2ccc(Cl)cc2)n1` [Compound 112] registered an inhibition at 10 µM on human CB1 receptor (setting [1]) of 82.1%. This molecule also came in with an IC50 on human CB1 receptor of 2.81 ± 0.301 µM.

As to `Cc1ccc(CNC(=O)Cn2nc(-c3ccc(Cl)cc3Cl)c(-c3ccc(Cl)cc3Cl)n2)cc1` [Compound 145], at human CB1 receptor (setting [1]), testing at 10 µM gave an inhibition of 95%. In addition, the IC50 on human CB1 receptor turned out to be 0.252 ± 0.0751 µM.

`CCCCCNC(=O)n1nc(-c2ccc(Cl)cc2)c(-c2ccc(Cl)cc2Cl)n1` [Compound 90]: the inhibition at 10 µM on human CB1 receptor (setting [1]) was determined as 14.4%.

In the case of `O=C(Cn1nnc(-c2cc(Cl)cc(Cl)c2)c1-c1cc(Cl)cc(Cl)c1)N1CCCCC1` [Compound 17], the inhibition at 10 µM on human CB1 receptor (setting [2]) was found to be 25.9%.

On human CB1 receptor (setting [2]), `CCCCCCOC(=O)Cn1nnc(-c2ccc(Cl)cc2)c1-c1ccc(Cl)cc1Cl` [Compound 55] had an inhibition at 10 µM of 45.7%.

As for `O=C(Cn1nc(-c2ccc(Cl)cc2Cl)c(-c2ccc(Cl)cc2Cl)n1)NCc1ccc(F)cc1F` [Compound 190], the half-maximal inhibitory concentration (IC50) is 0.0459 ± 0.0184 µM on human CB1 receptor and > 10 µM on human CB2 receptor (cells printed in μM).

Molecule `O=C(Cn1nnc(-c2ccc(Cl)cc2Cl)c1-c1ccc(Cl)cc1Cl)N1CCCCC1` [Compound 60] displayed an inhibition at 10 µM on human CB1 receptor (setting [2]) of 55.7%.

The molecule `CCCCCCCOC(=O)Cn1nnc(-c2ccc(Cl)cc2Cl)c1-c1ccc(Cl)cc1Cl` [Compound 59] registered an inhibition at 10 µM on human CB1 receptor (setting [2]) of 30.1%.

In turn, `CCCCOC(=O)Cn1nnc(-c2ccc(F)c(Cl)c2)c1-c1ccc(F)c(Cl)c1` [Compound 21] registered an inhibition at 10 µM at human CB1 receptor (setting [2]) of 15.7%.

Source of the values: patent US8293773B2, “1, 2, 3-triazole derivatives as new cannabinoid-1 receptor antagonists” (National Tsing Hua University, priority 2008, dated 2012).
